According to US20210128675A1, “LHRH-PACLITAXEL CONJUGATES AND METHODS OF USE” (priority 2019, published 2021):
“Also recorded” adds a separate entry of the source.

Tests used:
[1] = system: knocked down LHRH receptors of breast cancer cells; experiment: alamar blue reduction after siRNA knockdown of LHRH receptors; format: cell-based, human; details: cells treated with siRNAs; 5 μM; 24, 48 and 72 hours
[2] = system: MDA-MB-231 human triple negative breast cancer cells xenograft; experiment: subcutaneous xenograft tumor shrinkage study; format: in vivo, Athymic Nude-Foxn1nu strain mice; details: for tumor volume, 21-day group: after about two weeks, mean volume before treatment 98 mm^3; for xenograft tumor size, 28-day group: two weeks of drug administration, mean volume before treatment 230 mm^3; for tumor outcome, early stage (day 14 group): 10 mg/kg
Experimental: In this section, cell culture, tumor induction and drug injection studies were carried out. First, 20 μl of 1×10^6 MDA-MB-231 human triple negative cancer cells were cultured in T75 tissue culture flasks (CELLTREAT, Pepperell, Mass., USA). This was carried out at 37° C. until 70% confluence was reached. The cells were grown under normal atmospheric pressure levels in a “L15′ medium” that is typically made up of: L-15 medium (ATCC, Manassas, Va., USA), supplemented with 100 I.U./ml penicillin/100 µg/ml streptomycin and 10% FBS (ATCC, Manassas, Va., USA).
Forty 4-weekold Athymic Nude-FoxnInu strain mice with individual weights of ˜17 g each was purchase from Envigo (Somerset, N.J., USA). These animals were approved for use in the current work by the University of Massachusetts Medical School Institutional Animal Care and Use Committee (UMMS IACUC) with docket #A2630-17. All of the animals were maintained and used according to the approved UMMS IACUC procedure and guideline.
Subcutaneous tumor xenografts were induced by the injection of 5.0×10^6 of MDA-MB-231 human triple negative breast cancer cells (suspended in sterile saline) into the interscapular region (for a better angiogenic response). Tumor formation was carefully assessed by palpation. Tumor growth was then monitored daily with the digital calipers. The tumor volume was calculated using the following modified ellipsoidal formula: […]
where length was the longest axis of the tumor and width is the measurement at a right angle to the length.
The mice were randomly chosen in groups of three (for each drugs injection) into their respective treatment groups. These include groups of mice with early stage (14 days after tumor induction), mid stage (21 days after tumor induction) and late stage (28 days after tumor induction) tumors. The weights of the mice and their tumor sizes were monitored and measured (using digital calipers) on a daily basis. These precise volumes and measured weights of the mice were used to guide the administration of the drugs. They were also used to monitor toxicity and side effects associated with the drugs. For each of the study groups, 3 mice each were randomly assigned to injection of 10 mg/kg of the specific drug configuration (PTX, [D-Lys6]LHRH-conjugated PTX and DMSO).
Different groups of mice were injected intravenously with each drug through their tail veins. This was done after tumor growth for 14, 21 and 28 days. The mice were injected with 10 mg/kg per week, during the two-week periods in which the effects of drugs were investigated. Following each drug administration, the tumor sizes were monitored with calipers on a daily basis (every 24 hours). In this way, the possible tumor shrinkage, growth or elimination, were monitored on a daily basis. Furthermore, the health status of the mice was monitored on a daily basis. This was done by monitoring the mice for signs of weight loss or altered motor ability in their cages. At the end of study, the mice were euthanized, following the approved IACUC guidelines and procedures. Thereafter, tumor tissues were excised from all of the mice, including tissues from their major organs (kidneys, spleen, liver and lungs).

[3] = system: MDA MB 231 cells; experiment: alamar blue cell viability and cytotoxicity assay; format: cell-based, human
Experimental: The alamar blue cell viability and cytotoxicity assay was used to study the MDA MB 231 cells lines in the log phase of growth. MDA MB 231 cells were harvested with trypsin-EDTA in the presence of Dulbecco Phosphate Buffer (DPBS). 10^4 cells/well were then seeded in 12-well plates in L15+ medium (L15 medium with cell medium supplement of FBS and penicillin/streptomycin). After a 3-hour attachment period (of the cells), respective concentrations of 15 μM, 25 μM and 30 μM of paclitaxel, LRH-conjugated paclitaxel (of Example 1) and DMSO (in culture medium) were added to the 12-well plates consisting of 10^4 cells. Cell viability was monitored using the alamar blue cell viability and cytotoxicity reagent (Thermo Fisher Scientific, Waltham, Mass., USA) at times of 0 h, 18 h, 24 h, 48 h and 72 h, following drug addition. At each time point, the culture medium was replaced with 1 ml of 10% alamar blue solution (in culture medium). The 12-well plates were then incubated at 37° C. for different durations. After each time point, 100 µl of the solution incubated with alamar blue solution (ABS) was transferred into triplicate wells of a black opaque 96-well plate (Thermo Fisher Scientific, Waltham, Mass., USA).
The fluorescence intensities of the cell medium supernatant incubated with ABS were measured at 544 nm excitation and 590 nm emission using a 1420 Victor3 multi-label plate reader (Perkin Elmer, Waltham, Mass., USA). The percentage of alamar blue reduction, the percentage difference in cell population between the treated and untreated cells, and the percentage of cell growth inhibition, were determined using a combination of the ABS and cell viability studies. […]
where, FIsample=fluorescence intensity of the (treated or untreated) cells, FI10% AB=fluorescence intensity of 10% alamar blue reagent (negative control) and FI10% R=fluorescence intensity of 100% reduced alamar blue (positive control).
FItreated=fluorescence intensity of treated cells and FIcells=fluorescence intensity of untreated cells

[4] = system: MDA-MB-231 cells; experiment: confocal fluorescence imaging of cellular uptake and cytotoxicity; format: cell-based, human; details: 30 μM, 6 hours
[5] = system: triple negative breast tumor; experiment: drug-tissue adhesion study (drug-coated AFM tip); format: binding, mice
Experimental: In an effort to understand the specificity in the targeting of triple negative breast cancer via the receptors that are over-expressed on the tumor, adhesion measurements were carried out on the control xenograft tissue samples at different stages of tumor development. Adhesion forces and interactions (between the different drug molecules and receptors on the surfaces of the tumor tissues at different stages of development) were explored in an effort to understand the interactions of the drugs with the tumor and non-tumor tissue.
Antigen retrieval was carried out on the fixed tissue. This involved exposing target antigens to receptors on a […] thick microtome tissue slice. These sliced tissues were prepared for adhesion measurements in an Asylum MFP3D-Bio Atomic Force Microscope (AFM) (Asylum Research, Oxford Instrument, CA, USA). The AFM tips RESP-20 AFM tip (Bruker Santa Barbara, Calif., USA) were dip-coated with paclitaxel or [D-Lys6]LHRH-conjugated paclitaxel using the techniques described in Obayemi et al. (J. Mech. Behav. Biomed. Mater., 68 (2017), pp. 276-286).
A simple AFM tip dip-coating technique (J. D. Obayemi et al. Materials Science and Engineering C. 66, (2016), 51-65, Hampp, E. et al. Res. 27 (22), 2891, Hutter, J. L. et al. Instrum. 64, 1868) (of the drugs) was used to coat the AFM tips at room-temperature (˜23° C.). In addition, a positive control of LHRH peptides was coated onto the AFM tips and used to determine the adhesion forces between the receptors on breast cancer tissue. All of the coated AFM tips were air-dried for about 6 h and kept in a desiccator overnight before the adhesion measurements.
The spring constants of the coated and uncoated AFM tips were measured experimentally using the thermal tune method (J.D. Obayemi, et al. Mater., 68 (2017), 276-286). This was done to obtain the actual spring constants that were used to calculate the pull-off forces from Hooke's law. The adhesion interactions were measured for the following configurations of coatings on the AFM tips and breast cancer tumor at different stages on the mice: […]

[6] = histopathological and toxicity studies; details: 10 mg/kg weekly for two weeks; for qualitative toxicity (mortality, body weight, clinical signs): tumor-bearing mice
Experimental: Double doses of 10 mg/kg of PTX and PTX-[D-Lys6]LHRH were then administered (on a weekly basis for two weeks) to female athymic nude mice that were subcutaneously-induced with TNBC. In this way, qualitative toxicity was studied by considering differences in mortality, changes in body weight, clinical signs, gross observations and the histopathology of the lungs, kidneys and the liver at different stages of tumor development. This was done for the different drugs and cancer treatment durations. Daily observations and weight measurements were also used to check for possible animal reactions to the drugs, physiological changes, weight loss/gain, and the general well-being of the mice.
Hematoxylin and eosin (H and E) staining was also carried out. This was used for the identification of tumor necrosis and the examination of histologic changes that occurred in vital organs, following the administration of the drugs. Briefly, formalin-fixed, paraffin-embedded tissue/organs (tumor, kidneys, liver and lungs) samples (5 m) were injected with PTX, [D-Lys6]LHRH-conjugated PTX drugs and DMSO. These were hydrated by passing them through decreasing concentrations (100, 90 &70%) of alcohol baths and water.
The hydrated tissue sections were then stained in hematoxylin solution for 5 mins. This was followed by rinsing with tap water for 3 minutes and differentiation in 1% acid alcohol for 5 minutes. Tap water was then used to rinse (three times) before dipping the sections in ammonia water for 2 minutes. This was followed by staining with eosin for 10 mins. The treated sliced samples were dehydrated in solution with increasing concentrations of alcohols followed by xylene. Finally, a few drops of Permount Mounting Medium were used to mount the resulting samples. The stained slides were then imaged with a 20× objective lens using a TS100F Nikon microscope (Nikon Instruments Inc., Melville, N.Y., USA) coupled with a DS-Fi3 C camera.

[7] = 10 mg/kg per week IV, two weeks

CC(=O)O[C@H]1C(=O)[C@@]2(C)[C@H]([C@H](OC(=O)c3ccccc3)[C@]3(O)C[C@H](OC(=O)[C@H](O)[C@@H](NC(=O)c4ccccc4)c4ccccc4)C(C)=C1C3(C)C)[C@]1(OC(C)=O)CO[C@@H]1C[C@@H]2O [PTX, paclitaxel]
cell viability, PTX versus LHRH-conjugated PTX [1]: no significant differences in cell viability
tumor volume, 21-day group ([2]; 10 mg/kg per week IV): 86.83 mm^3
final tumor sizes, day 14 group ([2]; two IV injections (one per week) of 10 mg/kg, mean volume before treatment 67 mm^3): ~49.1 mm^3
xenograft tumor size, 28-day group ([2]; 10 mg/kg per week IV): 299.2 mm^3

LHRH-PTX
percentage cell growth inhibition ([3]; 15 μM, 25 μM, and 30 μM, 72 h): effective at inhibiting the growth of MDA MB 231 cells
cytotoxicity on coincubation with LHRH ([3]; coincubation of LHRH, 72 h): decreased the cytoxicity
cell viability (percentage alamar blue reduction) compared with unconjugated drug ([3]; without siRNA, 18, 24, 48 and 72 h): significantly reduced cell viability than the unconjugated drugs
cell viability, PTX versus LHRH-conjugated PTX [1]: no significant differences in cell viability
disruption of actin filaments, vinculin structures and cell membranes [4]: more evident
tumor outcome, mid- and late-stage tumors (21 and 28 days) ([2]; 10 mg/kg IV): significant shrinkage
decrease in xenograft volume compared to unconjugated PTX, 21-day group [2, 7]: 91%
percentage reduction in xenograft tumor volume compared to unconjugated PTX, 28-day group [2, 7]: 90.2%
structural changes in tumor cells/tissue (TEM) ([2]; 21-day and 28-day treatment groups): greater structural changes
tumor volume, 21-day group ([2]; 10 mg/kg per week IV): 7.76 mm^3
necrosis in tumor tissue (H&E) ([2]; compared with unconjugated PTX): higher levels of necrosis in the tumors
tumor outcome, early stage (day 14 group) ([2]; two IV injections (one per week) of 10 mg/kg, listed as LHRH-conjugated paclitaxel): elimination of early stage breast tumors
tumor outcome, early stage (day 14 group) ([2]; two IV injections (one per week) of 10 mg/kg, listed as [D-Lys6]LHRH-conjugated PTX): eliminated
tumor outcome, early stage (day 14 group) ([2]; two IV injections (one per week) of 10 mg/kg, listed as [D-Lys6]LHRH-conjugated paclitaxel): eliminated the tumors
xenograft tumor size, 28-day group ([2]; 10 mg/kg per week IV): 29.4 mm^3
adhesion force relative to unconjugated PTX, early stage tumor [5]: nearly three times
adhesion force relative to unconjugated PTX, late stage tumor [5]: about 2 times
adhesion force relative to unconjugated PTX, mid stage tumor [5]: more than three times
qualitative toxicity (mortality, body weight, clinical signs) [6]: No clinical signs, differences in mortality, or changes in body weight
qualitative toxicity (mortality, body weight, clinical signs) ([6]; listed as [D-Lys6]LHRH-conjugated paclitaxel): without any evidence of toxicity
histopathology of liver, lung and kidneys (H&E) ([6]; listed as [D-Lys6]LHRH-conjugated PTX): no significant histological or significant pathological changes; also recorded: no evidence of liver cell hyaline degeneration and necrosis, and no pulmonary edema or hyperplasia observed in the lungs
